Experimental data: patent US5989875A, “Method of process for producing L-lysine by fermentation” (priority 1995, dated 1999)
pIC50: −log10 of the molar value. In brackets after ≈: the same amount, converted by molar mass.

Columns and labels:
[1] = target: T1, AKIII (Escherichia coli, UniProt P08660); assay: Enzyme activity of AKIII and inhibition by L-lysine (cell-free extract); format: biochemical, E. coli
T1 construct: made in house; host or cells: E. coli GT3 (AKI, II, III deficient) transformed with pLYSC1 or its mutant plasmids; cell-free extract, ammonium sulfate pellet redissolved
T1 sequence (P08660 2-449): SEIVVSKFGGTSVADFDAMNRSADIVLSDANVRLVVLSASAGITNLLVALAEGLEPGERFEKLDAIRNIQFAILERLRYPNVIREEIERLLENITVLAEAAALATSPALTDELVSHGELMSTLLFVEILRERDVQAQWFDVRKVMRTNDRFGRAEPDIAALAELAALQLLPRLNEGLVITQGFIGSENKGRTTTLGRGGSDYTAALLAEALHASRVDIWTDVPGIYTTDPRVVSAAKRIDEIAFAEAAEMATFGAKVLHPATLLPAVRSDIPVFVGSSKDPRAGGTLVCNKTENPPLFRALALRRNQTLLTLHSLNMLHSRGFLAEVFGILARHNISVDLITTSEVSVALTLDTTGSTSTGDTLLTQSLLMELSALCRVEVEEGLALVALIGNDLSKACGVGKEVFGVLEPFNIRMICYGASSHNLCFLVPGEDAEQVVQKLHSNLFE
Description: No. 24, No. 43, No. 48, No. 60, No. 80, No. 117, No. 126, No. 149, No. 150, No. 156, No. 158, No. 167, No. 169 and No. 172 were selected as representative strains of the aforementioned 14 groups. Mutant plasmids derived from pLYSC1 were recovered from each of them, and designated as pLYSC1*24, pLYSC1*43, pLYSC1*48, pLYSC1*60, pLYSC1*80, pLYSC1*117, pLYSC1*126, pLYSC1*149, pLYSC1*150, pLYSC1*156, pLYSC1*158, pLYSC1*167, pLYSC1*169 and pLYSC1*172, respectively. An AK completely deficient strain GT3 was transformed with them and the wild type pLYSC1. A cell-free extract was prepared from each of transformed strains, and the enzyme activity of AKIII was measured.
The cell-free extract (crude enzyme solution) was prepared as follows. A transformed strain was cultivated in a 2 x TY medium, and collected at an OD660 of about 0.8. Cells were washed with 0.02 M KH2 PO4 (pH 6.75)-0.03 M β-mercaptoethanol under a condition of 0° C., and the cells were disrupted by sonication (0° C., 100 W, 30 minutes×4). A disrupted cell solution was centrifuged at 33 krpm for 1 hour under a condition of 0° C. to obtain a supernatant to which ammonium sulfate was added to give 80% saturation. After centrifugation, a pellet was dissolved in 0.02 M KH2 PO4 (pH 6.75)-0.03 M β-mercaptoethanol, and stored at 0° C. overnight.
The enzyme activity of AKIII was measured in accordance with a method of Stadtman et al. (Stadtman, E. R., Cohen, G. N., LeBras, G., and Robichon-Szulmajster, H., J. Biol. Chem., 236, 2033 (1961)). Namely, a reaction solution having the following composition was incubated at 27° C. for 45 minutes, and an FeCl3 solution (2.8 N HCl 0.4 ml+12% TCA 0.4 ml+5% FeCl3 ·6H2 O/0.1 N HCl 0.7 ml) was added thereto to develop a color, and it was centrifuged followed by measurement of absorbance of a supernatant at 540 nm. The activity was indicated by an amount of hydroxamic acid generated per minute (1 U=1 μmol/min). The molar absorption coefficient was 600. Potassium aspartate was removed from the reaction solution to be used as a blank.
In measurement of the enzyme activity of AK, various concentrations of L-lysine were added to the enzyme reaction solution and the degree of inhibition by L-lysine was examined.
On the contrary, although the mutant AKIII's obtained this time had various degrees of desensitization, inhibition by L-lysine was desensitized in all of 14 species. […] The specific activity based on total protein, which might be affected by growth situations of cell and preparation of samples, was equal to or more than that of the wild type in almost all cases, and there was little problem of decrease in activity due to the introduction of mutation (Table 3). According to this fact, it was expected that an active center of AKIII was independent from a regulatory site by L-lysine with each other. In Table 3, the inhibition desensitization degree (%) refers to an AK activity in the presence of 100 mM of L-lysine compared with an AK activity in the absence of L-lysine in the reaction solution. The heat stability (%) refers to a ratio of activity maintenance after a treatment at 55° C. for 1.5 hour.

[2] = tested on: GT3/pLYSC2 strain; assay: Growth of GT3/pLYSC2 on M9 media containing L-lysine or AEC; format: cell-based, E. coli; conditions: for Allotment of addition up to which growth was not suppressed: GT3/pLYSC2 strain; for Allotment of addition up to which growth was not suppressed / Growth of GT3/pLYSC2: M9 agar
Procedure: (§1) A transformed strain obtained by introducing pLYSC1 into the AK completely deficient strain, E. coli GT3 was designated as GT3/pLYSC1, and a transformed strain obtained by introducing pLYSC2 into the E. coli GT3 was designated as GT3/pLYSC2. A considerable amount of L-lysine was added to the minimal medium M9, and the GT3/pLYSC1 strain and the GT3/pLYSC2 strain were each cultivated. Both of the GT3/pLYSC1 strain and the GT3/pLYSC2 strain harbor plasmids containing the wild type lysC, in which AKIII encoded by lysC on the plasmids is a sole AK. The wild type AKIII as the sole AK is inhibited by L-lysine in the presence of a considerable amount of L-lysine.
(§2) The GT3/pLYSC1 strain and the GT3/pLYSC2 strain were cultivated on M9 agar plate media containing various concentrations of L-lysine or AEC, respectively. Growth inhibitory concentrations by L-lysine and AEC were examined, and a selection condition was investigated for a strain harboring a plasmid containing lysC*.
(§3) In this table, + indicates growth of transformant, ± indicates a little growth, and - indicates no growth.

[3] = tested on: GT3/pLYSC1 strain; assay: Growth of GT3/pLYSC1 on M9 media containing L-lysine or AEC; format: cell-based, E. coli; conditions: for MIC: Escherichia coli, GT3, read-out: Allotment of addition in which growth was completely suppressed; for Growth of GT3/pLYSC1: M9 agar
Procedure: as §1, §2, §3

[4] = tested on: W3110/pdapA2 strain; assay: Growth of W3110/pdapA2 on M9 media containing AEC; format: cell-based, E. coli; conditions: for Growth of W3110/pdapA2: M9 agar
Procedure: (§4) A transformed strain obtained by introducing pdapA1 into a wild type E. coli W3110 strain (available from National Institute of Genetics (Mishima-shi, Shizuoka-ken, Japan)) was designated as W3110/pdapA1, and a transformed strain obtained by introducing pdapA2 into the E. coli W3110 strain was designated as W3110/pdapA2, respectively. These two transformed strains were cultivated respectively in a minimal medium M9 having the following composition to which AEC as an analog of lysine was added. The W3110 strain with no introduced plasmid was also cultivated in the same medium as a control.
(§5) The W3110/pdapA1 strain and the W3110/pdapA2 strain obtained as described above were cultivated on M9 agar plate media containing various concentrations of AEC, respectively. Growth inhibitory concentrations by AEC were examined, and a selection condition was investigated for a strain harboring a plasmid containing dapA*.
(§6) In this table, + indicates growth of transformant, and - indicates no growth.

[5] = tested on: W3110 strain; assay: Growth of W3110 strain with no plasmid in minimal medium M9 with AEC; format: cell-based, E. coli; conditions: W3110 strain having no plasmid
Procedure: as §4

[6] = tested on: W3110/pdapA1 strain; assay: Growth of W3110/pdapA1 on M9 media containing AEC; format: cell-based, E. coli
Procedure: as §4, §5, §6

`NCCCC[C@H](N)C(=O)O` [L-lysine] was tested, and the pIC50 [1] was roughly 3.35, the inhibition at 5000 µM ([1]; read-out: Inhibition of AKIII) was roughly 100% and the “Growth in minimal medium M9 with a considerable amount of L-lysine” value ([2]; GT3/pLYSC2) was “suppressed in growth”. The “Allotment of addition up to which growth was not suppressed” value [2] was 100 mM, the “Growth of GT3/pLYSC2” value ([2]; L-lysine 0.2 mM) was “+” and the “Growth of GT3/pLYSC2” value ([2]; L-lysine 0.4 mM) was “+”. The “Growth of GT3/pLYSC2” value ([2]; L-lysine 0.8 mM) was “+”, the “Growth of GT3/pLYSC2” value ([2]; L-lysine 1.5 mM) was “+” and the “Growth of GT3/pLYSC2” value ([2]; L-lysine 3 mM) was “+”. The “Growth of GT3/pLYSC2” value ([2]; L-lysine 6 mM) was “+”, the “Growth of GT3/pLYSC2” value ([2]; L-lysine 12 mM) was “+” and the “Growth of GT3/pLYSC2” value ([2]; L-lysine 25 mM) was “+”. The “Growth of GT3/pLYSC2” value ([2]; L-lysine 50 mM) was “+”, the “Growth of GT3/pLYSC2” value ([2]; L-lysine 100 mM) was “±” and the “Growth of GT3/pLYSC2” value ([2]; L-lysine 200 mM) was “-”. The MIC [3] was 0.2 mM (≈ 29.2 µg/mL), the “Growth in minimal medium M9 with a considerable amount of L-lysine” value ([3]; GT3/pLYSC1) was “suppressed in growth” and the “Growth of GT3/pLYSC1” value ([3]; L-lysine 0.2 mM) was “-”. The “Growth of GT3/pLYSC1” value ([3]; L-lysine 0.4 mM) was “-”, the “Growth of GT3/pLYSC1” value ([3]; L-lysine 0.8 mM) was “-” and the “Growth of GT3/pLYSC1” value ([3]; L-lysine 1.5 mM) was “-”. For the same compound, the “Growth of GT3/pLYSC1” value ([3]; L-lysine 3 mM) was “-”, the “Growth of GT3/pLYSC1” value ([3]; L-lysine 6 mM) was “-” and the “Growth of GT3/pLYSC1” value ([3]; L-lysine 12 mM) was “-”. For the same compound, the “Growth of GT3/pLYSC1” value ([3]; L-lysine 25 mM) was “-”, the “Growth of GT3/pLYSC1” value ([3]; L-lysine 50 mM) was “-” and the “Growth of GT3/pLYSC1” value ([3]; L-lysine 100 mM) was “-”. The “Growth of GT3/pLYSC1” value ([3]; L-lysine 200 mM) was “-”.

`NCCSC[C@H](N)C(=O)O` [AEC, S-2-aminoethylcysteine] was tested, and the MIC ([4]; Escherichia coli, read-out: Allotment of addition in which growth was suppressed) was 15 mM (≈ 2460 µg/mL), the “Growth of W3110/pdapA2” value ([4]; AEC 2 mM) was “+” and the “Growth of W3110/pdapA2” value ([4]; AEC 4 mM) was “+”. For the same compound, the “Growth of W3110/pdapA2” value ([4]; AEC 8 mM) was “+”, the “Growth of W3110/pdapA2” value ([4]; AEC 15 mM) was “-” and the “Growth of W3110/pdapA2” value ([4]; AEC 30 mM) was “-”. The “Growth of W3110/pdapA2” value ([4]; AEC 60 mM) was “-”, the “Growth of W3110/pdapA2” value ([4]; AEC 125 mM) was “-” and the “Growth of W3110/pdapA2” value ([4]; AEC 250 mM) was “-”. The “Growth in minimal medium M9 to which AEC was added” value (“Growth … to which AEC was added” for short) ([4]; W3110/pdapA2) was “suppressed in growth”, the “Allotment of addition up to which growth was not suppressed” value [2] was 3 mM and the “Growth of GT3/pLYSC2” value ([2]; AEC 0.2 mM) was “±”. For the same compound, the “Growth of GT3/pLYSC2” value ([2]; AEC 0.4 mM) was “±”, the “Growth of GT3/pLYSC2” value ([2]; AEC 0.8 mM) was “±” and the “Growth of GT3/pLYSC2” value ([2]; AEC 1.5 mM) was “±”. The “Growth of GT3/pLYSC2” value ([2]; AEC 3 mM) was “±”, the “Growth of GT3/pLYSC2” value ([2]; AEC 6 mM) was “-” and the “Growth of GT3/pLYSC2” value ([2]; AEC 12 mM) was “-”. The “Growth of GT3/pLYSC2” value ([2]; AEC 25 mM) was “-”, the “Growth of GT3/pLYSC2” value ([2]; AEC 50 mM) was “-” and the “Growth … to which AEC was added” value [5] was “suppressed in growth”. The MIC [3] was 0.2 mM (≈ 32.8 µg/mL), the “Growth of GT3/pLYSC1” value ([3]; AEC 0.2 mM) was “-” and the “Growth of GT3/pLYSC1” value ([3]; AEC 0.4 mM) was “-”. The “Growth of GT3/pLYSC1” value ([3]; AEC 0.8 mM) was “-”, the “Growth of GT3/pLYSC1” value ([3]; AEC 1.5 mM) was “-” and the “Growth of GT3/pLYSC1” value ([3]; AEC 3 mM) was “-”. For the same compound, the “Growth of GT3/pLYSC1” value ([3]; AEC 6 mM) was “-”, the “Growth of GT3/pLYSC1” value ([3]; AEC 12 mM) was “-” and the “Growth of GT3/pLYSC1” value ([3]; AEC 25 mM) was “-”. The “Growth of GT3/pLYSC1” value ([3]; AEC 50 mM) was “-”, the MIC ([6]; Escherichia coli, W3110/pdapA1 strain, M9 agar, read-out: Allotment of addition in which growth was suppressed) was 30 mM (≈ 4930 µg/mL) and the “Growth of W3110/pdapA1” value ([6]; M9 agar, AEC 2 mM) was “+”. For the same compound, the “Growth of W3110/pdapA1” value ([6]; M9 agar, AEC 4 mM) was “+”, the “Growth of W3110/pdapA1” value ([6]; M9 agar, AEC 8 mM) was “+” and the “Growth of W3110/pdapA1” value ([6]; M9 agar, AEC 15 mM) was “+”. The “Growth of W3110/pdapA1” value ([6]; M9 agar, AEC 30 mM) was “-”, the “Growth of W3110/pdapA1” value ([6]; M9 agar, AEC 60 mM) was “-” and the “Growth of W3110/pdapA1” value ([6]; M9 agar, AEC 125 mM) was “-”. For the same compound, the “Growth of W3110/pdapA1” value ([6]; M9 agar, AEC 250 mM) was “-” and the “Growth … to which AEC was added” value ([6]; W3110/pdapA1) was “suppressed in growth”.
